Data from US20230416248A1, “COMPOUNDS AND USES THEREOF” (Foghorn Therapeutics Inc., priority 2020, published 2023).

Tests used:
BRM = molecular target: T1, BRM (Homo sapiens, UniProt P51531); assay: ATPase catalytic activity of BRM, ADP-Glo in vitro biochemical assay; details: for IC50: ATPase catalytic activity, ADP-Glo, 30 nM BRM, 400 μM ATP; for Ratio*: ratio of BRG1 IC50 to BRM IC50
T1 construct: made in house; host or cells: High Five insect cells
Summary of the method: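 ADP-Glo luminescence, after depletion of leftover ATP and conversion of ADP, reported the activity. The 1 h room-temperature reaction held 400 μM ATP, 20 nM salmon sperm DNA and 30 nM BRM in 20 mM Tris pH 8, 20 mM MgCl2, 50 mM NaCl, 0.1% Tween-20, 1 mM DTT.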

BRG-1 = molecular target: T2, BRG-1 (Homo sapiens, UniProt P51532); assay: ATPase catalytic activity of BRG-1, ADP-Glo in vitro biochemical assay; details: ATPase catalytic activity, ADP-Glo; 30 nM BRG-1, 400 μM ATP; read-out: BRG1 IC50
T2 construct: made in house; host or cells: High Five insect cells
T2 sequence (P51532 whole entry): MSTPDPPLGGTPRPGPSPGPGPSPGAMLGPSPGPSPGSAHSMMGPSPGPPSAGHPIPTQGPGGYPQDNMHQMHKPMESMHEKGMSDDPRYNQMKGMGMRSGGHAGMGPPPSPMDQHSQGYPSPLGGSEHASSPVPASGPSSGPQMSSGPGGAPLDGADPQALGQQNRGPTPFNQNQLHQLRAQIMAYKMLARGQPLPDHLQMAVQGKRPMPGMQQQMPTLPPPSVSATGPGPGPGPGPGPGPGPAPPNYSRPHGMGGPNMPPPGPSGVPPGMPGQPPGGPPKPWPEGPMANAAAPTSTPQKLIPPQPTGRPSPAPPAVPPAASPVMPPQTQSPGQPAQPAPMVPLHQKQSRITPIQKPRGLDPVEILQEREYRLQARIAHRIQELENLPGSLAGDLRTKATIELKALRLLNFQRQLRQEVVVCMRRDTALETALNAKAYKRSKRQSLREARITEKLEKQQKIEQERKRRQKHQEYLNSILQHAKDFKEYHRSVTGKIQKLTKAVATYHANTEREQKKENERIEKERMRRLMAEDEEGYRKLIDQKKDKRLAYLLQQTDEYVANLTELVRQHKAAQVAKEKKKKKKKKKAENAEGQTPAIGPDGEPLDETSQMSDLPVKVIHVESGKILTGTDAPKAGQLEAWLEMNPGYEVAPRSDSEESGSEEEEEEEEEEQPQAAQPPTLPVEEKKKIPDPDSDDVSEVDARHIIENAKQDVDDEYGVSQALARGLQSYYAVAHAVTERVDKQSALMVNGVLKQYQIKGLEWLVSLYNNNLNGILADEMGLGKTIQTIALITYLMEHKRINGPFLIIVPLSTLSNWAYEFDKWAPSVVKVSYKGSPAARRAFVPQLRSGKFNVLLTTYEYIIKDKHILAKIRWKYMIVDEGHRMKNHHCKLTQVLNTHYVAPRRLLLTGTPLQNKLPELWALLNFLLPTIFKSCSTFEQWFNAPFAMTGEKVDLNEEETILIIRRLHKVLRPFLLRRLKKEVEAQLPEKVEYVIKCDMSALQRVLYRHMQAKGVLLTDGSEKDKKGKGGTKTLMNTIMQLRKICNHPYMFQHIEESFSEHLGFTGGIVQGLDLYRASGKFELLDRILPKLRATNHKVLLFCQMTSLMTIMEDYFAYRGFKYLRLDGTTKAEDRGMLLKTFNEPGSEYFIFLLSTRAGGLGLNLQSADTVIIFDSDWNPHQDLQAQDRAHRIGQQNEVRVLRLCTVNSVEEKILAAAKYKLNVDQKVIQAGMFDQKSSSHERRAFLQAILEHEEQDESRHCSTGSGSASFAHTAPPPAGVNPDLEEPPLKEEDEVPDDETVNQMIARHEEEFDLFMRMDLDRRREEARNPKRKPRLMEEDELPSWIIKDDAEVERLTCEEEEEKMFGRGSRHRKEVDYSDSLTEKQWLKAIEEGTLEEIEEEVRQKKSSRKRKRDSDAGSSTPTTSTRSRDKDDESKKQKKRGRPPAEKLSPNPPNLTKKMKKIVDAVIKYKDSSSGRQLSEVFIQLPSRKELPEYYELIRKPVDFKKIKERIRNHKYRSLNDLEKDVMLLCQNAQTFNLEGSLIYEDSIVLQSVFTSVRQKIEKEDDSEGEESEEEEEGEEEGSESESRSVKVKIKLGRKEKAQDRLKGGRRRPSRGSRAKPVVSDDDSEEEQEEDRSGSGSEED
Summary of the method: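 In this in vitro format, BRG-1 hydrolysis product ADP is detected via a two-step ADP-Glo workup (ATP removal, then ADP-to-ATP conversion with luciferase detection) followed by a luminescence read.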

T1 sequence (P51531 whole entry): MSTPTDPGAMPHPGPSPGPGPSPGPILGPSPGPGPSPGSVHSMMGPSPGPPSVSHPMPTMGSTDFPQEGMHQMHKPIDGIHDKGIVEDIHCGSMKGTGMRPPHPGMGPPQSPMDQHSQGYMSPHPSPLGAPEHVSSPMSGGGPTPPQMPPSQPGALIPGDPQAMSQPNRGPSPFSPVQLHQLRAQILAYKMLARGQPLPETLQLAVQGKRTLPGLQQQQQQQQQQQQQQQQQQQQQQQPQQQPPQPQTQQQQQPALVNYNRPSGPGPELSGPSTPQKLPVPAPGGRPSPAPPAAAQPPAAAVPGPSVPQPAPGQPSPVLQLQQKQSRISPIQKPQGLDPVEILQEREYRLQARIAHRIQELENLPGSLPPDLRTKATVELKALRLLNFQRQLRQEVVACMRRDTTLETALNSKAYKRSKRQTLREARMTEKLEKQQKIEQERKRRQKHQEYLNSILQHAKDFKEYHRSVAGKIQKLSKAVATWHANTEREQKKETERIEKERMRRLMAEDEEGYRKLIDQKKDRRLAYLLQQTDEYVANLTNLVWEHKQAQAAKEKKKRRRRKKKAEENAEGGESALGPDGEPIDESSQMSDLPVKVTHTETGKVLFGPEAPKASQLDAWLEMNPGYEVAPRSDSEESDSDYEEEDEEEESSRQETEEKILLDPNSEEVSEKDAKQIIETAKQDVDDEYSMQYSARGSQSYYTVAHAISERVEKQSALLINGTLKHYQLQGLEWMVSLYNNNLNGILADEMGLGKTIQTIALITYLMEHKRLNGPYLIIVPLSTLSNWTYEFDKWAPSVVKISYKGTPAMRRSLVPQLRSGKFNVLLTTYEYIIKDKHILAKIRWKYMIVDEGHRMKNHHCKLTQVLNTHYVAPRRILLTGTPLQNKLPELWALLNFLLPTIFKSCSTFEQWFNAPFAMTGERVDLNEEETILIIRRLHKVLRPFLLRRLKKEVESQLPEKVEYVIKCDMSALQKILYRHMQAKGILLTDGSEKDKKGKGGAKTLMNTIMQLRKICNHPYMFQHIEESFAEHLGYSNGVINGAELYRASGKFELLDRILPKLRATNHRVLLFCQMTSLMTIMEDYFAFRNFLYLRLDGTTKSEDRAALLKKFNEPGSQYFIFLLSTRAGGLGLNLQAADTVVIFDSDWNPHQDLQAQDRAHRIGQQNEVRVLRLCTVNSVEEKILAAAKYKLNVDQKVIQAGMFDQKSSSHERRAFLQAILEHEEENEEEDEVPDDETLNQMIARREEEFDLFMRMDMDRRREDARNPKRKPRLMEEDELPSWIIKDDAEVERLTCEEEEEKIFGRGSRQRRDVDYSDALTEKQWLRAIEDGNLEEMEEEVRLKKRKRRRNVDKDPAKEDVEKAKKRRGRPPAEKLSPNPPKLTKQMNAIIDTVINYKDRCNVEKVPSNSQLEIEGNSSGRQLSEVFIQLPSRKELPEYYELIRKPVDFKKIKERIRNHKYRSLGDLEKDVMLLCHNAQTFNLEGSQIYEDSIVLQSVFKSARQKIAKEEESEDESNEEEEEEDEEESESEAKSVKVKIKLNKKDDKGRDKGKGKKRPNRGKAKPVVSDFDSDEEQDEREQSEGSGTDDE

| SMILES | IC50 (BRM) [µM] | Ratio* (BRM) | IC50 (BRG-1) [µM] |
| --- | --- | --- | --- |
| COC[C@H]1CCCN(c2cccc(-c3ccc4cnc(CNC(=O)c5ccc6c(c5)S(=O)(=O)CCOC6)cc4n3)n2)C1 [Compound 622] | 0.0274 | 3.98 | 0.109 |
| O=C(NCc1cc2nc(N3CCCc4cc(F)c(F)cc43)ccc2cn1)c1ccc2c(c1)S(=O)(=O)CCOC2 [Compound 625] | 0.0367 | 14.05 | 0.515 |
| O=C(NCc1cc2nc(N3CCCc4ccc(C5CCOC5)nc43)ccc2cn1)c1ccc2c(c1)S(=O)(=O)CCOC2 (stereo not drawn) [Compound 630] | 0.048 | 24.14 | 1.16 |
| Cc1cc2c(nc1C1CC1)N(c1ccc3cnc(CNC(=O)c4ccc5c(c4)S(=O)(=O)CCOC5)cc3n1)CCC2 [Compound 632] | 0.0583 | 19.38 | 1.13 |
| CCO[C@@H](C)c1ccc2c(n1)N(c1ccc3cnc(CNC(=O)c4ccc5c(c4)S(=O)(=O)CCOC5)cc3n1)CCC2 [Compound 635] | 0.168 | 15.08 | 2.53 |
| CCO[C@H](C)c1ccc2c(n1)N(c1ccc3cnc(CNC(=O)c4ccc5c(c4)S(=O)(=O)CCOC5)cc3n1)CCC2 [Compound 636] | 0.271 | 15.73 | 4.26 |
| COC[C@H]1COc2c(-c3ccc4cnc(CNC(=O)c5ccc6c(c5)S(=O)(=O)CCOC6)cc4n3)cccc2N1C [Compound 638] | 0.227 | 3.90 | 0.883 |
| COC[C@@H]1COc2c(-c3ccc4cnc(CNC(=O)c5ccc6c(c5)S(=O)(=O)CCOC6)cc4n3)cccc2N1C [Compound 639] | 0.102 | 7.66 | 0.78 |
| O=C(NCc1cc2nc(N3CCCC4CCCCC43)ccc2cn1)c1ccc2c(c1)S(=O)(=O)CCOC2 (stereo not drawn) [Compound 640] | 0.615 | 7.16 | 4.4 |
| C[C@@H]1CN(c2cccc(-c3ccc4cnc(CNC(=O)c5cc(F)c6c(c5)S(=O)(=O)[C@H](C)CN6C)cc4n3)n2)C[C@H](C)O1 [Compound 642] | 0.156 | 18.87 | 2.95 |
| O=C(NCc1cc2nc(N3CCCc4ccc(OC(F)F)nc43)ccc2cn1)c1ccc2c(c1)S(=O)(=O)CCOC2 [Compound 643] | 0.108 | 8.21 | 0.889 |
| COc1cccc2c1CCN2c1ccc2cnc(CNC(=O)c3ccc4c(c3)S(=O)(=O)CCOC4)cc2n1 [Compound 647] | 0.0559 | 6.61 | 0.37 |
| CC1CN(c2ccc3cnc(CNC(=O)c4ccc5c(c4)S(=O)(=O)CCOC5)cc3n2)c2ncccc2N1C (stereo not drawn) [Compound 649] | 0.127 | 5.93 | 0.75 |
| COCCc1ccc2c(n1)N(c1ccc3cnc(CNC(=O)c4ccc5c(c4)S(=O)(=O)CCOC5)cc3n1)CCC2 [Compound 651] | 0.0553 | 30.77 | 1.7 |
| O=C(NCc1cc2nc(N3CCCC4CCCC43)ccc2cn1)c1ccc2c(c1)S(=O)(=O)CCOC2 (stereo not drawn) [Compound 652] | 0.443 | 7.21 | 3.19 |
| COc1ccc2c(c1)CCN2c1ccc2cnc(CNC(=O)c3ccc4c(c3)S(=O)(=O)CCOC4)cc2n1 [Compound 653] | 0.23 | 7.47 | 1.72 |
| O=C(NCc1cc2nc(N3CCc4ccc(Cl)cc43)ccc2cn1)c1ccc2c(c1)S(=O)(=O)CCOC2 [Compound 654] | 0.104 | 24.78 | 2.57 |
| C[C@@H]1CN(c2cccc(-c3ccc4cnc(CNC(=O)c5ccc6c(c5)S(=O)(=O)CCOC6(C)C)cc4n3)n2)C[C@H](C)O1 [Compound 655] | 0.249 | 15.80 | 3.93 |
| Cc1cc2c(-c3ccc4cnc(CNC(=O)c5ccc6c(c5)S(=O)(=O)CCOC6)cc4n3)cncc2n1C [Compound 657] | 0.0353 | 5.73 | 0.202 |
| O=C(NCc1cc2nc(N3CCCc4ccc(C5CCCO5)nc43)ccc2cn1)c1ccc2c(c1)S(=O)(=O)CCOC2 (stereo not drawn) [Compound 659] | 0.0427 | 24.28 | 1.04 |
| C[C@@H]1Cc2ccc(-c3ccc4cnc(CNC(=O)c5ccc6c(c5)S(=O)(=O)CCOC6)cc4n3)nc2N(C)C1 [Compound 661] | 0.0439 | 6.86 | 0.301 |
| C[C@H]1Cc2ccc(-c3ccc4cnc(CNC(=O)c5ccc6c(c5)S(=O)(=O)CCOC6)cc4n3)nc2N(C)C1 [Compound 662] | 0.0367 | 4.71 | 0.173 |
| O=C(NCc1cc2nc(N3CCCc4cc(N5CCC5)cnc43)ccc2cn1)c1ccc2c(c1)S(=O)(=O)CCOC2 [Compound 666] | 0.0242 | 11.06 | 0.268 |
| C[C@@H]1CN(c2cccc(-c3ccc4cnc(CNC(=O)c5ccc6c(c5)S(=O)(=O)[C@@H](C)CN6C5CC5)cc4n3)n2)C[C@H](C)O1 [Compound 667] | 0.039 | 13.24 | 0.517 |
| COCCn1cc2c(-c3ccc4cnc(CNC(=O)c5ccc6c(c5)S(=O)(=O)CCOC6)cc4n3)cccc2n1 [Compound 673] | 0.568 | 8.79 | 4.99 |

Compounds with a lower IC50 (BRM), results first:

| IC50 (BRM) [µM] | Ratio* (BRM) | IC50 (BRG-1) [µM] | SMILES |
| --- | --- | --- | --- |
| 0.0056 | 11.17 | 0.0627 | COc1cnc2c(c1)OCCN2c1ccc2cnc(CNC(=O)c3ccc4c(c3)S(=O)(=O)CCOC4)cc2n1 [Compound 619] |
| 0.0168 | 9.37 | 0.158 | O=C(NCc1cc2nc(N3CCCc4c(OC(F)F)ccnc43)ccc2cn1)c1ccc2c(c1)S(=O)(=O)CCOC2 [Compound 620] |
| 0.02 | 23.08 | 0.461 | COCc1nc2c(cc1C)CCCN2c1ccc2cnc(CNC(=O)c3ccc4c(c3)S(=O)(=O)CCOC4)cc2n1 [Compound 626] |
| 0.0039 | 1.28 | 0.005 | C[C@@H]1CN(c2cccc(-c3ccc4cnc(CNC(=O)c5ccc6c(c5)S(=O)(=O)CCOCC6)cc4n3)n2)C[C@H](C)O1 [Compound 627] |
| 0.0027 | 3.60 | 0.0097 | C[C@@H]1CN(c2cccc(-c3ccc4cnc(CNC(=O)c5ccc6c(c5)S(=O)(=O)CCCOC6)cc4n3)n2)C[C@H](C)O1 [Compound 628] |
| 0.01 | 8.49 | 0.085 | COc1c(C)cnc2c1CCCN2c1ccc2cnc(CNC(=O)c3ccc4c(c3)S(=O)(=O)CCOC4)cc2n1 [Compound 629] |
| 0.02 | 10.34 | 0.207 | COc1cnc2c(c1C)CCCN2c1ccc2cnc(CNC(=O)c3ccc4c(c3)S(=O)(=O)CCOC4)cc2n1 [Compound 637] |
| 0.0064 | 26.34 | 0.17 | O=C(NCc1cc2nc(N3CCCc4ccc(OC5CC5)cc43)ccc2cn1)c1ccc2c(c1)S(=O)(=O)CCOC2 [Compound 644] |
| 0.0098 | 17.38 | 0.17 | O=C(NCc1cc2nc(N3CCOc4cc(Cl)cnc43)ccc2cn1)c1ccc2c(c1)S(=O)(=O)CCOC2 [Compound 645] |
| 0.0121 | 20.44 | 0.247 | C[C@H]1COCc2ccc(C(=O)NCc3cc4nc(N5CCOc6cc(Cl)cnc65)ccc4cn3)cc2S1(=O)=O [Compound 646] |
| 0.005 | 3.85 | 0.0194 | C[C@@H]1CN(c2cccc(-c3ccc4cnc(CNC(=O)c5cc6c(cc5F)COCCS6(=O)=O)cc4n3)n2)C[C@H](C)O1 [Compound 648] |
| 0.0127 | 9.04 | 0.115 | C[C@H]1COCc2ccc(C(=O)NCc3cc4nc(N5CCCc6cc(N(C)C)cnc65)ccc4cn3)cc2S1(=O)=O [Compound 650] |
| 0.0122 | 10.50 | 0.128 | Cc1cnc2c(c1)CCN2c1ccc2cnc(CNC(=O)c3ccc4c(c3)S(=O)(=O)CCOC4)cc2n1 [Compound 656] |
| 0.007 | 48.50 | 0.342 | CCc1ccc2c(n1)N(c1ccc3cnc(CNC(=O)c4ccc5c(c4)S(=O)(=O)CCOC5)cc3n1)CCO2 [Compound 658] |
| 0.0072 | 8.17 | 0.059 | COCc1cc2c(nc1Cl)N(c1ccc3cnc(CNC(=O)c4ccc5c(c4)S(=O)(=O)CCOC5)cc3n1)CCC2 [Compound 660] |
| 0.0064 | 13.54 | 0.0868 | CCc1cnc2c(c1)OCCN2c1ccc2cnc(CNC(=O)c3ccc4c(c3)S(=O)(=O)CCOC4)cc2n1 [Compound 665] |
| 0.0084 | 8.70 | 0.0734 | CO[C@@H]1C[C@@H]1N(C)c1cccc(-c2ccc3cnc(CNC(=O)c4ccc5c(c4)S(=O)(=O)[C@@H](C)COC5)cc3n2)n1 [Compound 668] |
| 0.0171 | 18.96 | 0.324 | CO[C@H]1C[C@H]1N(C)c1cccc(-c2ccc3cnc(CNC(=O)c4ccc5c(c4)S(=O)(=O)[C@@H](C)COC5)cc3n2)n1 [Compound 669] |
| 0.0101 | 8.79 | 0.0883 | CO[C@H]1C[C@@H]1N(C)c1cccc(-c2ccc3cnc(CNC(=O)c4ccc5c(c4)S(=O)(=O)[C@@H](C)COC5)cc3n2)n1 [Compound 670] |
| 0.0152 | 13.70 | 0.209 | CO[C@@H]1C[C@H]1N(C)c1cccc(-c2ccc3cnc(CNC(=O)c4ccc5c(c4)S(=O)(=O)[C@@H](C)COC5)cc3n2)n1 [Compound 672] |
